Measured values from publication PMC6525071 (Cell chemical biology, 2019).

Key:
cells = assay: Cell survival test of free fatty acids in the presence or absence of IKE; assay type: cell-based; conditions: for effect of free fatty acid on ferroptosis: 10 μM, in the presence of IKE; for toxicity of free fatty acid to cells: high concentration (100 μM)
SUDHL-6 cells [1] = assay: Immunofluorescence of dihydropyridine-MDA-lysine adduct in cells; assay type: cell-based; conditions: IKE treatment
cell lines = conditions: ref Larraufie et al., 2015, cited from earlier work
RIVA = assay: DLBCL cell line sensitivity to IKE, Cell Titer-Glo viability; assay type: cell-based; conditions: read-out: cell line sensitivity class (IC50), IKE 24 hours
[2] = system: SUDHL6 xenograft tumor tissue; assay: TBARS assay on tumor tissue from efficacy study; assay type: in vivo, mouse
[3] = system: SUDHL6 xenograft tumor tissue; assay: GSH in tumor tissue after a single IKE dose; assay type: in vivo, mouse; conditions: single dose 50 mg/kg IKE IP, starting at 4 hours
caspase-3 = assay: Caspase-3 western blot on tumor tissue; assay type: in vivo, mouse; conditions: upon IKE treatment, efficacy study
SUDHL-6 cells [4] = assay: RT-qPCR gene expression in cells; assay type: cell-based; conditions: for effect of co-treatment on IKE-induced upregulation of lipid metabolism genes: 10 μM co-treatment with 500 nM IKE
[5] = Pharmacokinetic analysis in NCG mice bearing SUDHL6 xenografts; assay type: in vivo, mouse
[6] = Mouse weight during efficacy study; assay type: in vivo; conditions: starting from day 9
SUDHL-6 cells [7] = assay: Lipid ROS by flow cytometry with C11-BODIPY; assay type: cell-based
SUDHL-6 cells [8] = assay: Reduced glutathione measurement in cells; assay type: cell-based
LY7 = assay: DLBCL cell line sensitivity to IKE, Cell Titer-Glo viability; assay type: cell-based; conditions: read-out: cell line sensitivity class (IC50), LY7, IKE 24 hours
[9] = system: SUDHL6 xenograft tumor tissue; assay: RT-qPCR in tumor tissue after a single IKE dose; assay type: in vivo, mouse; conditions: single dose 50 mg/kg IKE, starting at 3 h
LY8 = assay: DLBCL cell line sensitivity to IKE, Cell Titer-Glo viability; assay type: cell-based; conditions: read-out: cell line sensitivity class (IC50), LY8, IKE 24 hours
HBL1 = assay: as above; assay type: cell-based; conditions: read-out: cell line sensitivity class (IC50), HBL1, IKE 24 hours
[10] = ref Larraufie et al., 2015; cited from earlier work
U937 = assay: DLBCL cell line sensitivity to IKE, Cell Titer-Glo viability; assay type: cell-based; conditions: read-out: cell line sensitivity class (IC50), U937, IKE 24 hours
[11] = Pharmacokinetic analysis in mice with three administration routes; assay type: in vivo, mouse; conditions: single dose IP, IV, PO, NOD/SCID mice, 5% DMSO in HBSS at pH 4
[12] = system: SUDHL6 xenograft tumor tissue; assay: Immunofluorescence on frozen tumor sections from efficacy study; assay type: in vivo, mouse
SUDHL6 cells [13] = assay: Untargeted lipidomics; assay type: cell-based; conditions: for effect of co-treatment on IKE-induced lipidomic changes: 10 μM co-treatment with 500 nM IKE
GSH = conditions: ref Narang et al., 2007; Lo et al., 2010; cited from earlier work
SUDHL6 cells [14] = assay: IKE PEG-PLGA cellular activity, CellTiter-Glo viability
DLBCL cell lines = assay: Rescue of IKE-induced cell death by co-treatment with ferroptosis inhibitors; assay type: cell-based
[15] = IP injection, SUDHL6 NCG xenograft mice
[16] = single dose 50 mg/kg IP, SUDHL6-xenograft-bearing NCG mice
[17] = 10 μM fer-1 with 500 nM IKE, 6 hours, SUDHL6 cells
[18] = 10 μM fer-1 co-treatment with 500 nM IKE

CCCCCCCC/C=C\CCCCCCCC(=O)O [oleic acid]
effect of free fatty acid on ferroptosis (cells): protected against ferroptosis

CCCCC/C=C\C/C=C\C/C=C\CCCCC(=O)O [γ-linolenic acid]
toxicity of free fatty acid to cells (cells): toxic to cells

CC(C)Oc1ccc(C(=O)Cn2ccnc2)cc1-n1c(CN2CCN(C(=O)COc3ccc(Cl)cc3)CC2)nc2ccccc2c1=O [IKE, imidazole ketone erastin]
dihydropyridine-MDA-lysine-adduct abundance (SUDHL-6 cells [1]): increased
potency improvement comparing to erastin (cell lines; in some cell lines): > 100 x
potency (cell lines): nanomolar
IC50 (RIVA): 100 to 10000 nM
MDA increase (TBARS, MDA-TBA adduct fluorescence) ([2]; IKE 23 mg/kg): 1.4 fold
MDA increase (TBARS, MDA-TBA adduct fluorescence) ([2]; IKE 40 mg/kg): 1.8 fold
GSH depletion in tumor tissue [3]: over 50%
caspase-3 activity in tumor tissues (caspase-3): no increase in caspase-3 activity
GPX4, CBS and ACSL4 expression (SUDHL-6 cells [4]; IKE treatment, data not shown): not upregulated
SLC7A11, PTGS2 and CHAC1 expression (SUDHL-6 cells [4]; SUDHL-6 cells, 500 nM IKE): significantly increased
T1/2 plasma [5, 15]: 1.83 h
T1/2 tumor [5, 15]: 3.50 h
highest plasma concentration [5, 16]: 5.2 µg/mL
highest tumor accumulation [5, 16]: 2.5 µg/mL
time of highest plasma concentration [5, 16]: 1.35 h
time of highest tumor accumulation [5, 16]: 3.30 h
mouse weight ([6]; IKE 23 mg/kg daily): weight loss
mouse weight ([6]; IKE 40 mg/kg daily): weight loss
lipid ROS (C11-BODIPY) (SUDHL-6 cells [7]; different concentrations of IKE): dose-dependent increase
cellular level of reduced glutathione (GSH) (SUDHL-6 cells [8]; SUDHL6 cells, different concentrations of IKE, 24 hours): dose-dependent GSH depletion
IC50 (SUDHL-6 cells [8]; read-out: IC50 of GSH depletion, SUDHL-6 cells, 24 h): 34 nM
IC50 (LY7): > 10000 nM
CHAC1 mRNA upregulation in tumor [9]: 2 fold
PTGS2 mRNA upregulation in tumor [9]: 3–5 fold
SLC7A11 mRNA upregulation in tumor [9]: 3–5 fold
IC50 (LY8): < 100 nM
IC50 (HBL1): 100 to 10000 nM
metabolic stability [10]: high
IC50 (U937): > 10000 nM
comparison of dosage routes by IKE concentration over eight hours [11]: IP to be the most effective and practical means
increase in 8-OH-dG intensity in tumor sections ([12]; IKE 23 mg/kg daily for 14 days): 1.8 fold
increase in COX-2 intensity in tumor sections ([12]; IKE 23 mg/kg daily for 14 days): 2.0 fold
increase in MDA intensity in tumor sections ([12]; IKE 23 mg/kg daily for 14 days): 1.8 fold
increase in 8-OH-dG intensity in tumor sections ([12]; IKE 40 mg/kg daily for 14 days): 2.2 fold
increase in COX-2 intensity in tumor sections ([12]; IKE 40 mg/kg daily for 14 days): 2.8 fold
increase in MDA intensity in tumor sections ([12]; IKE 40 mg/kg daily for 14 days): 2.0 fold

CCOc1ccccc1-n1c(C(C)N2CCN(C(=O)COc3ccc(Cl)cc3)CC2)nc2ccccc2c1=O (stereo not drawn) [erastin, reference compound]
metabolic stability [10]: metabolically labile

CCCCCC/C=C\CCCCCCCC(=O)O [palmitoleic acid]
effect of free fatty acid on ferroptosis (cells): protected against ferroptosis

CC/C=C\C/C=C\C/C=C\C/C=C\C/C=C\CCCC(=O)O [eicosapentaenoic acid]
toxicity of free fatty acid to cells (cells): toxic to cells

OCCS [β-ME, β-mercaptoethanol]
effect of co-treatment on IKE-induced upregulation of lipid metabolism genes (SUDHL-6 cells [4]; SUDHL6 cells): partially reversed
effect of co-treatment on IKE-induced upregulation of SLC7A11, PTGS2 and CHAC1 (SUDHL-6 cells [4]; 10 μM β-ME with 500 nM IKE, 6 hours, SUDHL6 cells): prevented
effect of co-treatment on IKE-induced GSH depletion (SUDHL-6 cells [8]; 10 μM β-ME co-treatment, SUDHL6 cells, 24 hours): reversed
effect of co-treatment on IKE-induced lipidomic changes (SUDHL6 cells [13]): reversed these effects

O=C(O)c1cc(/N=N/c2ccc(S(=O)(=O)Nc3ccccn3)cc2)ccc1O [sulfasalazine]
IC50 for GSH depletion (GSH): millimolar range

CCCCC/C=C\C/C=C\C/C=C\C/C=C\CCCC(=O)O [arachidonic acid]
toxicity of free fatty acid to cells (cells): toxic to cells

CCOC(=O)c1ccc(NC2CCCCC2)c(N)c1 [fer-1, ferrostatin-1]
effect of co-treatment on IKE-induced upregulation of lipid metabolism genes (SUDHL-6 cells [4]; SUDHL6 cells): partially reversed
effect of co-treatment on IKE-induced CHAC1 upregulation (SUDHL-6 cells [4]; [17]): did not inhibit CHAC1 upregulation
effect of co-treatment on IKE-induced PTGS2 upregulation (SUDHL-6 cells [4]; [17]): inhibited PTGS2 upregulation
effect of co-treatment on IKE-induced lipid ROS signal (SUDHL-6 cells [7]; 10 μM fer-1 co-treatment): inhibited this signal
MAG lipids (SUDHL6 cells [13]; [18]): decreased
TAG lipids (SUDHL6 cells [13]; [18]): significantly increased
effect of fer-1 co-treatment on cell death induced by IKE and IKE PEG-PLGA NPs (SUDHL6 cells [14]): rescued cell death
effect of fer-1 co-treatment on cell death induced by IKE (DLBCL cell lines; DLBCL cell lines): rescued cell death

CC(=O)N(O)CCCCCNC(=O)CCC(=O)N(O)CCCCCNC(=O)CCC(=O)N(O)CCCCCN [DFO, deferoxamine]
effect of co-treatment on IKE-induced lipidomic changes (SUDHL6 cells [13]): only partially eliminated lipidomic changes
effect of DFO co-treatment on IKE-induced cell death (DLBCL cell lines; in culture): inhibited IKE-induced cell death
